Laboratory results taken from patent US20210069295A1, “GALECTINS CONTROL MTOR IN RESPONSE TO ENDOMEMBRANE DAMAGE AND PROVIDE A MECHANISM AND TARGET FOR THE TREATMENT OF AUTOPHAGY-RELATED DISEASES” (STC. UNM, priority 2017, published 2021).
Peptide text beside a SMILES is read from it.

How the values were obtained:
[1] = test system: mTOR; assay: mTOR localization relative to LAMP2-positive lysosomes (HC and confocal microscopy); type: cell-based
Procedure: (A) Dose-response analysis of mTOR activity in HEK293T cells treated with glycyl-L-phenylalanine 2-naphththylamide (GPN) in full medium for 1 h. mTOR activity was monitored by inununoblotting analysis of S6K1 (T389) and ULK1 (S757) phosphorylation (phosphorylated S6K (T389) and ULK1 (S757) relative to total S6K and ULK1, respectively). (B) Analysis of mTOR activity (as in A) after GPN washout. HEK293T cells were treated with 100 μM GPN for 1 h followed by 1 h washout in full medium. Data, means±SEM (n=3), **p<0.01, ANOVA. (C) Analysis of mTOR activity (as in A) in HEK293T cells treated with increasing doses of silica in full medium for 1 h. (D) HEK293T cells were treated with lysosomal damaging agents (LLOMe, Leu-Leu-OMe) for 1 h in full medium and status of acidified organelles assessed by quantifying LysoTracker Red DND-99 puncta using automated high-content imaging and analysis (HC). None-treated cells were as control (Ctrl). White masks, algorithm defined cell boundaries (primary objects); yellow masks, computer-identified LysoTracker Red puncta (target objects). Data, means±SEM, n≥3 independent experiments (500 primary objects counted per well; ≥5 wells/sample per each experiment), **p<0.01, ANOVA. (E) Analysis of mTOR activity in primary human macrophages treated with GPN. Human peripheral blood monocyte derived macrophages were treated with 100 μM GPN in full medium or starved in EBSS for 1 h, and mTOR activity measured as in A. None-treated cells were as control (Ctrl). (F) Quantification by HC of overlaps between mTOR and LAMP2 (representative images shown in FIG. S1D) in HeLa cells treated with lysosomal damaging agents for 1 h in full medium. Data, means±SEM, n≥3 independent experiments (500 primary objects counted per well; ≥5 wells/sample per each experiment) **p<0.01, ANOVA. (G) Immunofluorescence confocal microscopy visualization of mTOR localization relative to LAMP2-positive lysosomes. […] (H) Analysis of TFEB nuclear translocation in HeLa cells treated with 100 μM GPN in full medium for 1 h, and the nuclear translocation of TFEB was measured by HC (Nuclei, Hoechst 33342, blue pseudocolor; TFEB red fluorescence, Alexa-568). […] White masks, computer algorithm-defined cell boundaries (primary objects); pink masks, computer-identified nuclear TFEB based on the average intensity of Alexa-568 fluorescence. Data, means±SEM, n≥3 independent experiments (500 primary objects counted per well; ≥5 wells/sample per each experiment), **p<0.01, ANOVA. (I) HeLa cells were treated as indicated in full medium for 1 h, and LC3 puncta were quantified by HC. […] Data, means±SEM, n≥3 independent experiments (500 primary objects counted per well; ≥5 wells/sample per each experiment), **p<0.01, ANOVA. […]

[2] = test system: mTOR and RagA; assay: Co-IP of FLAG-tagged galectins with endogenous mTOR or RagA in HEK293T cells; type: binding; conditions: HEK293T overexpressing FLAG-tagged galectins
Procedure: (A) Analysis of the puncta formation of galectins in response to GPN. HeLa cells overexpressing YFP-fused with the indicated galectins were treated with 100 μM GPN or without (Ctrl) in full medium for 1 h and galectin puncta were quantified by HC. […] White masks, algorithm defined cell boundaries (primary objects); green masks, computer-identified galectins puncta (target objects). Data, means±SEM, n≥3 independent experiments (500 primary objects counted per well; ≥5 wells/sample per each experiment); *p<0.05, **p<0.01, † p≥0.05, ANOVA. (B) Immunoprecipitation analysis of the interactions between galectins and mTOR or RagA GTPase. HEK293T cells overexpressing FLAG-tagged galectins were subjected to anti-FLAG immunoprecipitation followed by immunoblotting for endogenous mTOR or RagA. (C) Immunoprecipitation analysis of interactions between Gal8 and mTOR protein complexes in response to GPN treatment. THP-1 cells not treated or treated with 100 μM GPN in full medium for 1 h were subjected to immunoprecipitation with anti-Gal8 antibody, followed by immunoblotting for endogenous RagA, p14, mTOR or Raptor. […] Biotinylated proteins from HEK293T cell expressing APEX2-vector or APEX2-Gal8, after GPN and biotin phenol (BP) treatment were affinity-enriched by binding to streptavidin-beads, and samples were analyzed by immunoblotting analysis for endogenous RagA, p14, mTOR or Raptor. […]

NCC(=O)N[C@@H](Cc1ccccc1)C(=O)Nc1ccc2ccccc2c1 [GPN, glycyl-L-phenylalanine 2-naphththylamide] (HELM PEPTIDE1{G.F.[c1ccc2cc(N[*:1])ccc2c1]}$$$$V2.0)
mTOR localization in cells expressing RagBQ99L ([1]; HEK293T stably expressing RagBQ99L, 100 μM GPN 1 h): remained on lysosomes | mTOR localization (lysosomes vs cytosol, overlap with LAMP2) ([1]; HeLa cells, 1 h full medium): translocated from lysosomes to the cytosol

Gal8: protein of the galectin family encoded by the gene LGALS8; beta-galactoside-binding lectin
co-IP with mTOR and RagA [2]: found in co-IPs
